Earlier results as cited in US20100172993A1, “PARTICLES FOR DELIVERY OF ACTIVE INGREDIENTS, PROCESS OF MAKING AND COMPOSITIONS THEREOF” (priority 2006, published 2010).

Conditions: topical insect repellent

CCN(CC)C(=O)c1ccccc1 [NN Diethyl Benzamide]
Absorption of the active ingredient in the blood plasma after dermal application: no absorption of the active ingredient in the blood plasma
